From publication PMC8623179, “Design and Microwave Synthesis of New (5Z) 5-Arylidene-2-thioxo-1,3-thiazolinidin-4-one and (5Z) 2-Amino-5-arylidene-1,3-thiazol-4(5H)-one as New Inhibitors of Protein Kinase DYRK1A” (Pharmaceuticals, 2021)
Read-outs that look alike come from different tables or passages of the source.

Legend:
DYRK1A = target: T1, DYRK1A (Rattus norvegicus, UniProt Q63470); assay: DYRK1A kinase assay; type: biochemical; details: 15 μM ATP
T1 construct: GST; made in house; host or cells: Escherichia coli
Protocol: (§1) The twenty-two (5Z) 5-arylidene-2-thioxo-1,3-thiazolidin-4-ones 3a–v and the twenty-four (5Z) 2-amino-5-arylidene-1,3-thiazolidin-4(5H)-ones 5a–x were evaluated against four different and representative in vitro kinase assays DYRK1A (dual specificity tyrosine phosphorylation regulated kinase), CK1 δ/e (caseine kinase 1), CDK5/p25 (cyclin dependant kinase), and GSK3 α/β (glycogen synthase kinase 3) to evaluate their inhibition potency. […] All the compounds were initially tested at a 10 μM concentration.
After 30-min incubation at 30 °C, the reaction was stopped by harvesting, using a FilterMate harvester (Packard), onto P81 phospho-cellulose papers (GE Healthcare, Chicago, IL, USA) which were washed in 1% phosphoric acid. Scintillation fluid was added and the radioactivity measured in a Packard counter. Blank values were subtracted and activities calculated as pmoles of phosphate incorporated for the 30-min incubation. The activities were expressed in % of the maximal activity, i.e., in the absence of inhibitors. Controls were performed with appropriate dilutions of DMSO. […]

GSK-3α/β = GSK-3α/β kinase assay; type: biochemical, porcine; details: 15 μM ATP, read-out: IC50 GSK3α/β
Protocol: as §1
(§2) After 30-min incubation at 30 °C, the reaction was stopped by harvesting, using a FilterMate harvester (Packard), onto P81 phospho-cellulose papers (GE Healthcare, Chicago, IL, USA) which were washed in 1% phosphoric acid. Scintillation fluid was added and the radioactivity measured in a Packard counter. Blank values were subtracted and activities calculated as pmoles of phosphate incorporated for the 30-min incubation. The activities were expressed in % of the maximal activity, i.e., in the absence of inhibitors. Controls were performed with appropriate dilutions of DMSO.
GSK-3α/β (porcine brain, native) was assayed, as described for CDK5/p25 but in Buffer A and using a GSK-3 specific substrate (GS-1: […]pEDEEE) (pS stands for phosphorylated serine). GS-1 was synthesized by Millegen (Labege, France).

Casein kinase 1 (CK1δ/ε) = assay: CK1δ/ε kinase assay; type: biochemical, porcine; details: 15 μM ATP, read-out: IC50 CK1
Protocol: as §1, §2
Casein kinase 1 (CK1δ/ε) (porcine brain, native) was assayed with 0.67 µg of CKS peptide ([…]pSAYSITA), a CK1 specific substrate obtained from Millegen (Labege, France).

CDK5/p25 = target: T2, CDK5/p25 (Homo sapiens, UniProt Q00535); assay: CDK5/p25 kinase assay; type: biochemical; details: 15 μM ATP
T2 construct: made in house
T2 sequence (Q00535 whole entry): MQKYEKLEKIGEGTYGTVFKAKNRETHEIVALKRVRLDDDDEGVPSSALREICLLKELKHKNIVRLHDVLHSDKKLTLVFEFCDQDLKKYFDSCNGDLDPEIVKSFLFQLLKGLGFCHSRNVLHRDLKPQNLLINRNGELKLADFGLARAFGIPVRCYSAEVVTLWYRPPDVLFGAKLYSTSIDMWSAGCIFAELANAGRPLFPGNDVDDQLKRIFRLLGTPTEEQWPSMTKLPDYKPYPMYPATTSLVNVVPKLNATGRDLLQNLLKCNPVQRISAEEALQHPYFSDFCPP
T2 sequence (Q15078 99-307 partner limits assumed): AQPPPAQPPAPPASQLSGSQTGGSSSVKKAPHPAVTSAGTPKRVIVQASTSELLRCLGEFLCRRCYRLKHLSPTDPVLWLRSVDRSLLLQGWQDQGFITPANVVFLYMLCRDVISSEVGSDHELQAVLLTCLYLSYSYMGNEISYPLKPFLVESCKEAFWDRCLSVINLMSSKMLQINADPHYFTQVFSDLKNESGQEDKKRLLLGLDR
Protocol: as §1, §2
CDK5/p25 (human, recombinant) was prepared as previously described. […] ATP (3000 Ci/mmol; 10 mCi/mL) in a final volume of 30 μL. After 30-min incubation at 30 °C, 25 μL aliquots of supernatant were spotted onto 2.5 × 3 cm pieces of Whatman P81 phospho-cellulose paper, and, 20 s later, the filters were washed five times (for at least 5 min each time) in a solution of 10 mL phosphoric acid/litter of water. The wet filters were counted in the presence of 1 mL ACS (Amersham, UK) scintillation fluid.

| IC50 (DYRK1A; Table 4) [µM] | IC50 (GSK-3α/β; Table 4) [µM] | IC50 (Casein kinase 1 (CK1δ/ε); Table 4) [µM] | IC50 (CDK5/p25; Table 4) [µM] | IC50 (DYRK1A; Table 5) [µM] | IC50 (GSK-3α/β; Table 5) [µM] | IC50 (Casein kinase 1 (CK1δ/ε); Table 5) [µM] | IC50 (CDK5/p25; Table 5) [µM] | Structure (SMILES) |
| --- | --- | --- | --- | --- | --- | --- | --- | --- |
|  |  |  |  | ≥ 10 | > 10 | > 10 | > 10 | O=C1N=C(N2CCN(Cc3ccc4c(c3)OCO4)CC2)S/C1=C\c1ccc2c(c1)OCO2 [Compound 5j, (5Z)-5-(1,3-Benzodioxol-5-ylmethylene)-2-[1-(1,3-benzodioxol-5-ylmethyl)piperazin-1-yl]-1,3-thiazol-4(5H)-one] |
|  |  |  |  | 0.033 | ≤ 10 | > 10 | > 10 | O=C1N=C(Nc2ccccn2)S/C1=C\c1ccc2c(c1)OCO2 [Compound 5s, (5Z)-5-Benzo[1,3]dioxol-5-ylmethylene-2-(pyridin-2-yl)amino-1,3-thiazol-4(5H)-one] |
|  |  |  |  | 1.6 | > 10 | > 10 | > 10 | O=C1N=C(N2CCN(c3ccc(F)cc3)CC2)S/C1=C\c1ccc2c(c1)OCO2 [Compound 5k, (5Z)-5-(1,3-Benzodioxol-5-ylmethylene)-2-[1-(4-fluorophenyl)piperazin-1-yl]-1,3-thiazol-4(5H)-one] |
|  |  |  |  | 0.61 | > 10 | > 10 | > 10 | O=C1N=C(Nc2ccccc2)S/C1=C\c1ccc2c(c1)OCO2 [Compound 5r, (5Z)-5-Benzo[1,3]dioxol-5-ylmethylene-2-phenylamino-1,3-thiazol-4(5H)-one] |
|  |  |  |  | 0.27 | > 10 | > 10 | > 10 | O=C1N=C(Nc2ccccc2)S/C1=C\c1ccc2c(c1)OCCO2 [Compound 5x, (5Z)-5-(2,3-Dihydro-benzo[1,4]dioxin-6-ylmethylene)-2-phenylamino-1,3-thiazol-4(5H)-one] |
|  |  |  |  | 1.8 | > 10 | > 10 | > 10 | O=C1N=C(N2CCN(c3ncccn3)CC2)S/C1=C\c1ccc2c(c1)OCO2 [Compound 5l, (5Z)-5-(1,3-Benzodioxol-5-ylmethylene)-2-[4-(pyrimidin-2-yl)piperazin-1-yl]-1,3-thiazol-4(5H)-one] |
|  |  |  |  | 0.4 | ≥ 10 | > 10 | > 10 | O=C1N=C(N2CCSCC2)S/C1=C\c1ccc2c(c1)OCO2 [Compound 5g, (5Z)-5-(1,3-Benzodioxol-5-ylmethylene)-2-(thiomorpholin-1-yl)-1,3-thiazol-4(5H)-one] |
|  |  |  |  | 0.12 | > 10 | > 10 | > 10 | O=C1N=C(Nc2ccccc2)S/C1=C\c1ccc2c(c1)CCO2 [Compound 5w, (5Z)-5-(2,3-Dihydro-benzofuran-5-ylmethylene)-2-phenylamino-1,3-thiazol-4(5H)-one] |
|  |  |  |  | > 10 | > 10 | > 10 | > 10 | O=C1N=C(Nc2ccncc2)S/C1=C\c1ccc2c(c1)OCO2 [Compound 5t, (5Z)-5-Benzo[1,3]dioxol-5-ylmethylene-2-(pyridin-4-yl)amino-1,3-thiazol-4(5H)-one] |
|  |  |  |  | 1.8 | ≤ 8.8 | > 10 | > 10 | O=C1N=C(N2CCNCC2)S/C1=C\c1ccc2c(c1)OCO2 [Compound 5e, (5Z)-5-(1,3-Benzodioxol-5-ylmethylene)-2-(piperazin-1-yl)-1,3-thiazol-4(5H)-one] |
|  |  |  |  | 0.09 | 4.7 | ≥ 10 | > 10 | O=C1N=C(N2CCCCC2)S/C1=C\c1ccc2c(c1)CCO2 [Compound 5o, (5Z)-5-(2,3-Dihydro-benzofuran-5-ylmethylene)-2-(piperidin-1-yl)-1,3-thiazol-4(5H)-one] |
|  |  |  |  | > 10 | > 10 | > 10 | > 10 | COc1ccc(/C=C2\SC(N3CCOCC3)=NC2=O)cc1OC [Compound 5b, (5Z)-5-(3,4-Dimethoxybenzylidene)-2-(morpholin-1-yl)-1,3-thiazol-4(5H)-one] |
|  |  |  |  | 0.63 | 7.4 | > 10 | > 10 | O=C1N=C(N2CCOCC2)S/C1=C\c1ccc2c(c1)OCO2 [Compound 5a, (5Z)-5-(1,3-Benzodioxol-5-ylmethylene)-2-(morpholin-1-yl)-1,3-thiazol-4(5H)-one] |
|  |  |  |  | 0.07 | 5.3 | > 10 | > 10 | O=C1N=C(N2CCSCC2)S/C1=C\c1ccc2c(c1)CCO2 [Compound 5n, (5Z)-5-(2,3-Dihydro-benzofuran-5-ylmethylene)-2-(thiomorpholin-4-yl)-1,3-thiazol-4(5H)-one] |
|  |  |  |  | 0.94 | > 10 | ≥ 10 | > 10 | O=C1N=C(N2CCCCC2)S/C1=C\c1ccc2c(c1)OCCO2 [Compound 5p, (5Z)-5-(2,3-Dihydro-1,4-benzodioxin-6-ylmethylene)-2-(piperidin-1-yl)-1,3-thiazol-4(5H)-one] |
|  |  |  |  | 0.9 | > 10 | > 10 | > 10 | COc1ccc(NC2=NC(=O)/C(=C/c3ccc4c(c3)OCO4)S2)cc1 [Compound 5u, (5Z)-5-Benzo[1,3]dioxol-5-ylmethylene-2-(4-methoxy-phenylamino)-1,3-thiazol-4(5H)-one] |

Continued, molecule first:

| Structure (SMILES) | IC50 (DYRK1A; Table 4) [µM] | IC50 (GSK-3α/β; Table 4) [µM] | IC50 (Casein kinase 1 (CK1δ/ε); Table 4) [µM] | IC50 (CDK5/p25; Table 4) [µM] | IC50 (DYRK1A; Table 5) [µM] | IC50 (GSK-3α/β; Table 5) [µM] | IC50 (Casein kinase 1 (CK1δ/ε); Table 5) [µM] | IC50 (CDK5/p25; Table 5) [µM] |
| --- | --- | --- | --- | --- | --- | --- | --- | --- |
| O=C1NC(=S)S/C1=C\c1ccc2c(c1)OCCCO2 [Compound 3n, (5Z)-5-(3,4-Dihydro-2H-1,5-benzodioxepine-7-yl)methylene-2-thioxo-1,3-thiazolidin-4-one] | > 10 | > 10 | > 10 | > 10 |  |  |  |  |
| O=C(NN1C(=O)/C(=C/c2ccc3c(c2)OCO3)SC1=S)c1ccccc1 [Compound 3p, (5Z)-N-(5-Benzo[1,3]dioxol-5-ylmethylene-4-oxo-2-thioxo-thiazolidin-3-yl)-benzamide] | > 10 | > 10 | > 10 | > 10 |  |  |  |  |
| COc1ccc(C(=O)NN2C(=O)/C(=C/c3ccc4c(c3)OCO4)SC2=S)cc1 [Compound 3s] | > 10 | > 10 | > 10 | > 10 |  |  |  |  |
| O=C(CCc1ccccc1)NN1C(=O)/C(=C/c2ccc3c(c2)OCO3)SC1=S [Compound 3r, (5Z)-N-(5-Benzo[1,3]dioxol-5-ylmethylene-4-oxo-2-thioxo-thiazolidin-3-yl)-3-phenyl-propionamide] | > 10 | > 10 | > 10 | > 10 |  |  |  |  |
| NN1C(=O)/C(=C/c2ccc3c(c2)OCO3)SC1=S [Compound 3o, (5Z)-3-Amino-5-benzo[1,3]dioxol-5-ylmethylene-2-thioxo-thiazolidin-4-one] | > 10 | > 10 | > 10 | > 10 |  |  |  |  |
| O=C(Cc1ccccc1)NN1C(=O)/C(=C/c2ccc3c(c2)OCO3)SC1=S [Compound 3q, (5Z)-N-(5-Benzo[1,3]dioxol-5-ylmethylene-4-oxo-2-thioxo-thiazolidin-3-yl)-2-phenyl-acetamide] | > 10 | > 10 | > 10 | > 10 |  |  |  |  |
| O=C(O)CCN1C(=O)/C(=C/c2ccc3c(c2)OCO3)SC1=S [Compound 3v, (5Z)-3-(5-Benzo[1,3]dioxol-5-ylmethylene-4-oxo-2-thioxo-thiazolidin-3-yl)-propionic acid] | 0.7 | > 10 | > 10 | > 10 |  |  |  |  |
| O=C1NC(=S)S/C1=C\c1ccc2c(c1)CCCO2 [Compound 3m, (5Z)-5-(Chroman-6-yl)methylene-2-thioxo-1,3-thiazolidin-4-one] | 6.5 | > 10 | > 10 | > 10 |  |  |  |  |
| O=C1/C(=C/c2ccc3c(c2)OCO3)SC(=S)N1NS(=O)(=O)c1ccccc1 [Compound 3t, (5Z)-N-(5-Benzo[1,3]dioxol-5-ylmethylene-4-oxo-2-thioxo-thiazolidin-3-yl)-benzenesulfonamide] | > 10 | > 10 | > 10 | > 10 |  |  |  |  |
| O=C1NC(=S)S/C1=C\c1cccc(-c2ccc3c(c2)OCO3)n1 [Compound 3h, (5Z)-5-{[6-(1,3-Benzodioxol-5-yl)pyridin-2-yl]methylene}-2-thioxo-1,3-thiazolidin-4-one] | 0.35 | 1.6 | > 10 | > 10 |  |  |  |  |
